# Earlier results, collected in PubChem BioAssay AID1259409 (Chemical Carcinogenesis Research Information System (CCRIS), 2018).
# Test system: rodent chemically induced tumor inhibition, incidence and multiplicity
# Experiment: CCRIS tumor inhibitor studies
smiles,measurement,setting,value
CC(O)CCCc1ccccc1 (configuration not stated),"tumour outcome (control, treated, inhibition, significance)","Carcinogen: 4-(METHYLNITROSAMINO)-1-(3-PYRIDYL)-1-BUTANONE, 64091-91-4, Dose [Inhibitor]: 0, 25 UMOL IN 0.1 ML CORN OIL ONCE 2 HR PRIOR TO CARCINOGEN DOSE (STUDY DURATION: 16 WK), Route [Inhibitor]: GAVAGE, Species: MOUSE, Strain/Sex: STRAIN-A/FEMALE, Target Tissue: Type of Lesion: LUNG: TUMOR, Dose [Carcinogen]: 10 UMOL IN 0.1 ML SALINE ONCE, Promoter: NONE USED","100%, 100%, 0%, not significant"
CCCCCCCCCCCCCCCCCC(=O)O,"tumour outcome (control, treated, inhibition, significance)","Carcinogen: BENZO[A]PYRENE, 50-32-8, Dose [Inhibitor]: 4 MG IN 0.2 ML ACETONE 3/WK ADMINISTERED SIMULTANEOUSLY WITH CARCINOGEN FOR DURATION OF STUDY (STUDY DURATION: 440 D), Route [Inhibitor]: DERMAL, Species: MOUSE, Strain/Sex: ICR/FEMALE, Target Tissue: Type of Lesion: SKIN: PAPILLOMA, Dose [Carcinogen]: 5 UG IN 0.2 ML ACETONE THAT ALSO CONTAINED AGENT 3/WK, Promoter: NONE USED","16/50 (32%), 25/50 (50%), -56%, not calculated"
same,"tumour outcome (control, treated, inhibition, significance)","Carcinogen: BENZO[A]PYRENE, 50-32-8, Dose [Inhibitor]: 4 MG IN 0.2 ML ACETONE 3/WK ADMINISTERED SIMULTANEOUSLY WITH CARCINOGEN FOR DURATION OF STUDY (STUDY DURATION: 440 D), Route [Inhibitor]: DERMAL, Species: MOUSE, Strain/Sex: ICR/FEMALE, Target Tissue: Type of Lesion: SKIN: SQUAMOUS CARCINOMA, Dose [Carcinogen]: 5 UG IN 0.2 ML ACETONE THAT ALSO CONTAINED AGENT 3/WK, Promoter: NONE USED","12/50 (24%), 7/50 (14%), 42%, not calculated"
CCOC(=S)S,"tumour outcome (control, treated, inhibition, significance)","Carcinogen: N-NITROSO-DIETHYLAMINE, 55-18-5, Dose [Inhibitor]: 12.5 MG/KG IN DRINKING WATER ADMINISTERED SIMULTANEOUSLY WITH CARCINOGEN (STUDY DURATION: 28 WK), Route [Inhibitor]: ORAL, Species: RAT, Strain/Sex: BD6/MALE, Target Tissue: Type of Lesion: LIVER: TUMOR, Dose [Carcinogen]: 80 MG/KG 1/WK FOR 10 WK, Promoter: NONE USED","12/14 (86%), 10/14 (71%), 16%, p>0.05"
same,"tumour outcome (control, treated, inhibition, significance)","Carcinogen: N-NITROSO-DIETHYLAMINE, 55-18-5, Dose [Inhibitor]: 25 MG/KG IN DRINKING WATER PLUS 100 MG/KG 1 HR BEFORE CARCINOGEN ADMINISTERED SIMULTANEOUSLY WITH CARCINOGEN (STUDY DURA, Route [Inhibitor]: ORAL, Species: RAT, Strain/Sex: BD6/MALE, Target Tissue: Type of Lesion: LIVER: TUMOR, Dose [Carcinogen]: 80 MG/KG 1/WK FOR 10 WK, Promoter: NONE USED","12/14 (86%), 6/12 (50%), 42%, p<0.05"
CC(C)(O)/C=C/C(=O)[C@](C)(O)[C@H]1[C@H](O)C[C@@]2(C)[C@@H]3CC=C4[C@@H](C[C@H](O)[C@@H](O)C4(C)C)[C@]3(C)C(=O)C[C@]12C,"tumour outcome (control, treated, inhibition, significance)","Carcinogen: 7,12-DIMETHYLBENZ[A]ANTHRACENE, 57-97-6, Dose [Inhibitor]: 0, 85 NMOL IN 0.1 ML ACETONE APPLIED 1 HR PRIOR TO EACH PROMOTER DOSE 2/WK FOR 20 WK (STUDY DURATION: 21 WK), Route [Inhibitor]: DERMAL, Species: MOUSE, Strain/Sex: ICR/FEMALE, Target Tissue: Type of Lesion: SKIN: PAPILLOMA, Dose [Carcinogen]: 100 UG IN 0.1 ML ACETONE ONCE, Promoter: 12-O-TETRADECANOYLPHORBOL-13-ACETATE, 16561-29-8","100%, 100%, 0%, not significant"
N#CCc1c[nH]c2ccccc12,"tumour outcome (control, treated, inhibition, significance)","Carcinogen: 7,12-DIMETHYLBENZ[A]ANTHRACENE, 57-97-6, Dose [Inhibitor]: 0.03 MMOL/G DIET DAILY STARTING 8 D PRIOR TO AND CONTINUING THROUGH CARCINOGEN ADMINISTRATION FOLLOWED BY A 14 WK OBSERV, Route [Inhibitor]: ORAL, Species: RAT, Strain/Sex: SPRAGUE-DAWLEY/FEMALE, Target Tissue: Type of Lesion: MAMMARY GLAND: TUMOR, Dose [Carcinogen]: 12 MG IN 1 ML OLIVE OIL ONCE, Promoter: NONE USED","73%, 54%, 26%, not significant"
same,"tumour outcome (control, treated, inhibition, significance)","Carcinogen: 7,12-DIMETHYLBENZ[A]ANTHRACENE, 57-97-6, Dose [Inhibitor]: 0.1 MMOL IN 1 ML DIMETHYL SULFOXIDE ONCE 20 HR PRIOR TO CARCINOGEN ADMINISTRATION FOLLOWED BY A 14 WK OBSERVATION PERIOD, Route [Inhibitor]: GAVAGE, Species: RAT, Strain/Sex: SPRAGUE-DAWLEY/FEMALE, Target Tissue: Type of Lesion: MAMMARY GLAND: TUMOR, Dose [Carcinogen]: 12 MG IN 1 ML OLIVE OIL ONCE, Promoter: NONE","91%, 73%, 20%, not significant"
same,"tumour outcome (control, treated, inhibition, significance)","Carcinogen: 7,12-DIMETHYLBENZ[A]ANTHRACENE, 57-97-6, Dose [Inhibitor]: 0.1 MMOL IN 1 ML DIMETHYL SULFOXIDE ONCE 20 HR PRIOR TO CARCINOGEN ADMINISTRATION FOLLOWED BY A 14 WK OBSERVATION PERIOD, Route [Inhibitor]: GAVAGE, Species: RAT, Strain/Sex: SPRAGUE-DAWLEY/FEMALE, Target Tissue: Type of Lesion: MAMMARY GLAND: TUMOR, Dose [Carcinogen]: 12 MG IN 1 ML OLIVE OIL ONCE, Promoter: NONE USED","60%, 50%, 17%, not significant"
same,"tumour outcome (control, treated, inhibition, significance)","Carcinogen: BENZO[A]PYRENE, 50-32-8, Dose [Inhibitor]: 0.03 MMOL/G DIET DAILY STARTING AT 63 D OF AGE (8 D PRIOR TO START OF CARCINOGEN TREATMENT) THROUGH 98 D OF AGE FOLLOWED, Route [Inhibitor]: ORAL, Species: MOUSE, Strain/Sex: ICR/FEMALE, Target Tissue: Type of Lesion: FORESTOMACH: TUMOR, Dose [Carcinogen]: 1 MG IN 0.2 ML CORN OIL ADMINISTERED 2/WK FOR 4 WK, Promoter: NONE USED","93%, 68%, 27%, not significant"
same,"tumour outcome (control, treated, inhibition, significance)","Carcinogen: BENZO[A]PYRENE, 50-32-8, Dose [Inhibitor]: 0.03 MMOL/G DIET DAILY STARTING AT 63 D OF AGE (8 D PRIOR TO START OF CARCINOGEN TREATMENT) THROUGH 126 D OF AGE FOLLOWE, Route [Inhibitor]: ORAL, Species: MOUSE, Strain/Sex: ICR/FEMALE, Target Tissue: Type of Lesion: FORESTOMACH: TUMOR, Dose [Carcinogen]: 0.3 MG IN 0.2 ML CORN OIL ADMINISTERED 3/WK FOR 8 WK, Promoter: NONE USED","100%, 44%, 56%, p<0.01"
COc1ccc(-c2cc(=S)ss2)cc1,"tumour outcome (control, treated, inhibition, significance)","Carcinogen: 7,12-DIMETHYLBENZ[A]ANTHRACENE, 57-97-6, Dose [Inhibitor]: 0, 200 PPM IN DIET FOR DURATION OF STUDY BEGINNING 1 WK PRIOR TO CARCINOGEN DOSE (STUDY DURATION: 107 D), Route [Inhibitor]: ORAL, Species: RAT, Strain/Sex: SPRAGUE-DAWLEY/FEMALE, Target Tissue: Type of Lesion: MAMMARY GLAND: ADENOCARCINOMA, Dose [Carcinogen]: 12 MG ONCE, Promoter: NONE USED","80%, 75%, 6%, not significant"
same,"tumour outcome (control, treated, inhibition, significance)","Carcinogen: 7,12-DIMETHYLBENZ[A]ANTHRACENE, 57-97-6, Dose [Inhibitor]: 0, 400 PPM IN DIET FOR DURATION OF STUDY BEGINNING 1 WK PRIOR TO CARCINOGEN DOSE (STUDY DURATION: 107 D), Route [Inhibitor]: ORAL, Species: RAT, Strain/Sex: SPRAGUE-DAWLEY/FEMALE, Target Tissue: Type of Lesion: MAMMARY GLAND: ADENOCARCINOMA, Dose [Carcinogen]: 12 MG ONCE, Promoter: NONE USED","80%, 85%, -6%, not significant"
same,"tumour outcome (control, treated, inhibition, significance)","Carcinogen: AZOXYMETHANE, 25843-45-2, Dose [Inhibitor]: 0, 100 PPM IN DIET BEGINNING 2 WK PRIOR TO CARCINOGEN TREATMENT AND CONTINUING FOR DURATION OF STUDY (STUDY DURATION: 56, Route [Inhibitor]: ORAL, Species: RAT, Strain/Sex: F344/MALE, Target Tissue: Type of Lesion: COLON: INVASIVE ADENOCARCINOMA, Dose [Carcinogen]: 15 MG/KG 1/WK FOR 2 WK, Promoter: NONE USED","34%, 11%, 68%, p<0.05"
same,"tumour outcome (control, treated, inhibition, significance)","Carcinogen: AZOXYMETHANE, 25843-45-2, Dose [Inhibitor]: 0, 100 PPM IN DIET BEGINNING 2 WK PRIOR TO CARCINOGEN TREATMENT AND CONTINUING FOR DURATION OF STUDY (STUDY DURATION: 56, Route [Inhibitor]: ORAL, Species: RAT, Strain/Sex: F344/MALE, Target Tissue: Type of Lesion: COLON: NONINVASIVE ADENOCARCINOMA, Dose [Carcinogen]: 15 MG/KG 1/WK FOR 2 WK, Promoter: NONE USED","53%, 47%, 11%, not significant"
same,"tumour outcome (control, treated, inhibition, significance)","Carcinogen: AZOXYMETHANE, 25843-45-2, Dose [Inhibitor]: 0, 200 PPM IN DIET BEGINNING 2 WK PRIOR TO CARCINOGEN TREATMENT AND CONTINUING FOR DURATION OF STUDY (STUDY DURATION: 56, Route [Inhibitor]: ORAL, Species: RAT, Strain/Sex: F344/MALE, Target Tissue: Type of Lesion: COLON: INVASIVE ADENOCARCINOMA, Dose [Carcinogen]: 15 MG/KG 1/WK FOR 2 WK, Promoter: NONE USED","34%, 8%, 76%, p<0.01"
same,"tumour outcome (control, treated, inhibition, significance)","Carcinogen: AZOXYMETHANE, 25843-45-2, Dose [Inhibitor]: 0, 200 PPM IN DIET BEGINNING 2 WK PRIOR TO CARCINOGEN TREATMENT AND CONTINUING FOR DURATION OF STUDY (STUDY DURATION: 56, Route [Inhibitor]: ORAL, Species: RAT, Strain/Sex: F344/MALE, Target Tissue: Type of Lesion: COLON: NONINVASIVE ADENOCARCINOMA, Dose [Carcinogen]: 15 MG/KG 1/WK FOR 2 WK, Promoter: NONE USED","53%, 30%, 43%, p<0.05"
